Assay results taken from US8859582B2, “Bicyclic heterocyclic compounds as protein tyrosine kinase inhibitors” (Astex Therapeutics Limited, priority 2007, dated 2014).
pIC50: −log10 of the molar value.

Test system: LP-1 cell line
Assay: Cell-based pERK ELISA, LP-1 cells
Conditions: LP-1 human multiple myeloma cells, FGF-1/Heparin stimulation; read-out: IC50 against the LP-1 cell line (pERK ELISA)
Experimental: Enzyme buffer A: 8 mM MOPS, pH 7.0, 0.2 mM EDTA, 10 mM MgAcetate Enzyme buffer B: 8 mM MOPS, pH 7.0, 0.2 mM EDTA, 2.5 mM MnCl2, 10 mM MgAcetate Enzyme buffer C: 8 mM Mops, pH 7.0, 0.2 mM EDTA, 10 mM MnCl2, 10 mM MgAcetate. Cell-Based pERK ELISA Method
LP-1 or JIM-1 multiple myeloma cells were seeded in 96 well plates at 1×10^6 cells/ml in 200 μl per well in serum free media. HUVEC cells were seeded at 2.5×10^5 cells/ml and allowed to recover for 24 h prior to transfer to serum free media. Cells were incubated for 16 h at 37° C. prior to the addition of a test compound for 30 minutes. Test compounds were administered at a 0.1% final DMSO concentration. Following this 30 minute incubation a FGF-1/Heparin (FGF-1 at 100 ng/ml final and Heparin at 100 ug/ml) mixture or VEGF^165 (100 ug/ml) was added to each of the wells for a further 5 minutes. The media was removed and 50 ul ERK ELISA lysis buffer (R and D Systems DuoSet ELISA for pERK and Total ERK #DYC-1940E, DYC-1018E) added. ELISA plates and standards were prepared according to the standard DuoSet protocols and the relative amounts of pERK to total ERK in each sample calculated according to the standard curve.
In particular, compounds of the invention were tested against the LP-1 cell line (DSMZ no.: ACC 41) derived from human multiple myeloma.

- pIC50: > 6.00
SMILES: O=C(c1ccn2c(-c3cccc(Nc4nncs4)c3)cnc2c1)N1CCC1 [Example 2, Azetidin-1-yl-{3-[3-([1,3,4]thiadiazol-2-ylamino)-phenyl]-imidazo[1,2-a]pyridine-7-yl}-methanone]
